ChEMBL document CHEMBL1129399, “N-aryl-3,3,3-trifluoro-2-hydroxy-2-methylpropanamides: KATP potassium channel openers. Modifications on the western region” (J Med Chem, 1996)

Tests used:
[1] = test system: Rattus norvegicus; assay: in vivo activity was evaluated by measuring mean arterial pressure(MAP) after 1 hour.; format: functional, Artery
[2] = test system: Rattus norvegicus; assay: in vivo activity was evaluated by measuring mean arterial pressure(MAP) after 3 hour.; format: functional, Artery
[3] = test system: Rattus norvegicus; assay: in vivo activity was evaluated by measuring mean arterial pressure(MAP) after 5 hour.; format: functional, Artery
[4] = test system: Rattus norvegicus; assay: in vivo activity was evaluated by measuring heart rate(HR) after 1 hour.; format: functional
[5] = test system: Rattus norvegicus; assay: in vivo activity was evaluated by measuring heart rate(HR) after 3 hour.; format: functional
[6] = test system: Rattus norvegicus; assay: in vivo activity was evaluated by measuring heart rate(HR) after 5 hour.; format: functional
[7] = test system: Rattus norvegicus; assay: in vivo activity was evaluated by measuring interval between bladder contractions (IC) after 1 hour.; format: functional
[8] = test system: Rattus norvegicus; assay: in vivo activity was evaluated by measuring interval between bladder contractions (IC) after 3 hour.; format: functional
[9] = test system: Rattus norvegicus; assay: in vivo activity was evaluated by measuring interval between bladder contractions (IC) after 5 hour.; format: functional
[10] = test system: Rattus norvegicus; assay: in vivo activity was evaluated by measuring interval between bladder contractions (IC) after 1 hour.
[11] = test system: Rattus norvegicus; assay: In vivo activity was evaluated by measuring heart rate(HR) after 1 hour; format: functional
[12] = test system: Rattus norvegicus; assay: In vivo activity was evaluated by measuring heart rate(HR) after 3 hours; format: functional
[13] = test system: Rattus norvegicus; assay: In vivo activity was evaluated by measuring heart rate(HR) after 5 hours; format: functional
[14] = test system: Rattus norvegicus; assay: In vivo activity was evaluated by measuring interval between bladder contractions (IC) after 1 hour; format: functional
[15] = test system: Rattus norvegicus; assay: In vivo activity was evaluated by measuring interval between bladder contractions (IC) after 3 hours; format: functional
[16] = test system: Rattus norvegicus; assay: In vivo activity was evaluated by measuring interval between bladder contractions (IC) after 5 hours; format: functional
[17] = test system: Rattus norvegicus; assay: In vivo activity was evaluated by measuring mean arterial pressure(MAP) after 1 hour; format: functional, Artery
[18] = test system: Rattus norvegicus; assay: In vivo activity was evaluated by measuring mean arterial pressure(MAP) after 3 hours; format: functional, Artery
[19] = test system: Rattus norvegicus; assay: In vivo activity was evaluated by measuring mean arterial pressure(MAP) after 5 hours; format: functional, Artery
[20] = test system: Rattus norvegicus; assay: In vivo activity was evaluated by measuring mean arterial pressure (MAP) after 1 hour.; format: functional, Artery
[21] = test system: Rattus norvegicus; assay: In vivo activity was evaluated by measuring mean arterial pressure(MAP) after 3 hour.; format: functional, Artery
[22] = test system: Rattus norvegicus; assay: In vivo activity was evaluated by measuring mean arterial pressure(MAP) after 5 hour.; format: functional, Artery
[23] = test system: Rattus norvegicus; assay: In vivo activity was evaluated by measuring heart rate(HR) after 1 hour.; format: functional
[24] = test system: Rattus norvegicus; assay: In vivo activity was evaluated by measuring heart rate(HR) after 3 hour.; format: functional
[25] = test system: Rattus norvegicus; assay: In vivo activity was evaluated by measuring heart rate(HR) after 5 hour.; format: functional
[26] = test system: Rattus norvegicus; assay: In vivo activity was evaluated by measuring interval between bladder contractions (IC) after 1 hour.; format: functional
[27] = test system: Rattus norvegicus; assay: In vivo activity was evaluated by measuring interval between bladder contractions (IC) after 3 hour.; format: functional
[28] = test system: Rattus norvegicus; assay: In vivo activity was evaluated by measuring interval between bladder contractions (IC) after 5 hour.; format: functional
[29] = test system: Rattus norvegicus; assay: In vivo activity was evaluated by measuring mean arterial pressure(MAP) after 1 hour.; format: functional, Artery
[30] = test system: Rattus norvegicus; assay: In vivo activity was evaluated by measuring interval between bladder contractions (IC) after 1 hours; format: functional

SMILES	Delta MAP [1]	Delta MAP [2]	Delta MAP [3]	Delta HR [4]	Delta HR [5]	Delta HR [6]	Delta IC [7]	Delta IC [8]	Delta IC [9]	also measured
CC(O)(C(=O)Nc1ccc(S(=O)(=O)c2cccnc2)cc1)C(F)(F)F (stereo unspecified)	-16%	-14%	-11%	19%	3%	-2%	64%	83%	125%	
CN(c1ccccc1)S(=O)(=O)c1ccc(NC(=O)C(C)(O)C(F)(F)F)cc1 (stereo unspecified)	-1%	-3%	-4%	-1%	4%	1%	30%	33%	56%	
Cc1cc(C(=O)c2ccccc2)ccc1NC(=O)C(C)(O)C(F)(F)F (stereo unspecified)	-3%	-4%	-4%	0%	-1%	1%		50%	71%	Delta IC [10]: 26%
CC(O)(C(=O)Nc1ccc(S(=O)(=O)c2ccccc2)cc1)C(F)(F)F (stereo unspecified)										Delta HR [11]: 32%; Delta HR [12]: 27%; Delta HR [13]: -22%; Delta IC [14]: 24%; Delta IC [15]: 79%; Delta IC [16]: 97%; Delta MAP [17]: -25%; Delta MAP [18]: -24%; Delta MAP [19]: 23%
CC(O)(C(=O)Nc1ccc(C(=O)c2cccc(F)c2)cc1)C(F)(F)F (stereo unspecified)	4%	2%	1%	9%	4%	6%		56%	61%	Delta IC [10]: 25%
CC(O)(C(=O)Nc1ccc(S(=O)(=O)c2ccncc2)c(O)c1)C(F)(F)F (stereo unspecified)	1%	1%	-4%	2%	2%	6%	25%	42%	95%	
CC(O)(C(=O)Nc1ccc(C(=O)c2ccccc2)cc1)C(F)(F)F (stereo unspecified)										Delta MAP [20]: -1%; Delta MAP [21]: 1%; Delta MAP [22]: 2%; Delta HR [23]: 2%; Delta HR [24]: -3%; Delta HR [25]: -4%; Delta IC [26]: 35%; Delta IC [27]: 73%; Delta IC [28]: 128%
CC(O)(C(=O)Nc1ccc(S(=O)(=O)c2ccncc2)cc1)C(F)(F)F (stereo unspecified)	4%	5%	1%	5%	1%	0%	20%	76%	76%	
CC1(C)Oc2ccc(C#N)cc2[C@@H](N2CCCC2=O)[C@@H]1O [CROMAKALIM]										Delta MAP [29]: -18%; Delta MAP [21]: -14%; Delta MAP [22]: -12%; Delta HR [23]: 20%; Delta HR [24]: 13%; Delta IC [30]: 54%; Delta IC [27]: 104%; Delta IC [28]: 114%; Delta HR [13]: 9%
